Assay results published in patent publication US8258309B2, “Azapeptide derivatives” (priority 2007, dated 2012).

Experiments:
[1] = system: HIV-1RF; assay: HIV anti-viral activity in CEM-SS cells infected with HIV-1 (XTT); type: cell-based; settings: for EC50: Human immunodeficiency virus 1, CEM-SS
Procedure: The HIV antiviral activity of compound of the present invention was tested in CEM-SS cells infected with HIV-1. CEM-SS cells were passaged in T-75 flasks in RPMI 1640 medium supplemented with 10% heat inactivated fetal bovine serum, 2 mmol/L L-glutamine, 100 U/mL penicillin and 100 flg/mL streptomycin prior to use in the antiviral assay. On the day preceding the assay, the cells were split 1:2 to assure they were in an exponential growth phase at the time of infection. Total cell and viability quantification was performed using a hemocytometer and Trypan Blue dye exclusion. Cell viability was greater than 95% for the cells to be utilized in the assay. The cells were resuspended at 5×10^4 cells per mL in tissue culture medium and added to the drug-containing microtiter plates in a volume of 50 μL.
The virus used for the assay was the lymphocyte-tropic virus strain HIV-IRF. The virus was obtained from the NIH AIDS Research and Reference Reagent Program and stock virus pools were produced in CEM-SS cells. A pre-titered aliquot of virus was removed from the freezer (−80° C.) and allowed to thaw slowly to room temperature in a biological safety cabinet. Virus was resuspended and diluted into tissue culture medium such that the amount of virus added to each well in a volume of 50 μL was the amount determined to yield 85 to 95% cell killing at 6 days post-infection.
Each plate contains cell control wells (cells only), virus control wells (cells plus virus), compound toxicity wells (cells plus compound only), compound colorimetric control wells (compound only) as well as experimental wells (compound plus cells plus virus). Samples were tested in triplicate with eleven half-log dilutions per compound starting at 0.1 μM of compound. Compounds 104, 120 and 122 were tested, as was atazanavir and AZT. […]
Following incubation at 37° C. in a 5% CO2 incubator, the test plates were stained with the tetrazolium dye XTT (2,3-bis(2-methoxy-4-nitro-5sulfophenyl)-5-[(phenylamino)carbonyl]-2H-tetrazolium hydroxide). XTT-tetrazolium was metabolized by the mitochondrial enzymes of metabolically active cells to a soluble formazan product, allowing rapid quantitative analysis of the inhibition of HIV induced cell killing by anti-HIV test substances. XTT solution was prepared daily as a stock of 1 mg/mL in RPMI 1640. Phenazine methosulfate (PMS) solution was prepared at 0.15 mg/mL in PBS and stored in the dark at −20° C. XTT/PMS stock was prepared immediately before use by adding 40 μL of PMS per mL of XTT solution. Fifty microliters of XTT/PMS was added to each well of the plate and the plate was reincubated for 4 hours at 37° C. Plates were sealed with adhesive plate sealers and shaken gently or inverted several times to mix the soluble formazan product and the plate was read spectrophotometrically at 450/650 nm with a Molecular Devices Vmax plate reader.
Raw data was collected from the Softmax Pro 4.6 software and imported into a Microsoft Excel 2003 spreadsheet for analysis by linear curve fit calculations.

[2] = in vivo; settings: chimpanzee, po; for concentration detected intact in urine: 24 h; for concentration at 24 h: concentration detected intact in urine
Procedure: (§1) Four chimps (two male and two female) were used in this study and were fasted overnight prior to administration of the compound solution. Animals were sedated with ketamine and/or telazol prior to dosing. Intravenous dosing was achieved by IV infusion over 30 minutes.
(§2) Approximately 4.5 mL of blood was collected into vacutainer tubes with sodium heparin as an anticoagulant at 0 (preinfusion), 15 min., 29.5 min (immediately before the end of the infusion), and then at 6, 15, 30, and 45 minutes, and 1, 2, 4, 6, 8, 10, 12, 24 hours after the infusion is stopped. A similar procedure was used to collect blood after oral dosing with samples taken at 0 (predose), 15, and 30 minutes, and at 1, 1.5, 2, 4, 6, 8, 10, 12, 24 hours postdose. Following sample collection, the vacutainer tubes were rocked by hand several times to insure adequate mixing. Blood samples were placed immediately on wet ice and centrifuged within 1 hour from time of collection. Following centrifugation, the resulting plasma was stored frozen at −70° C. until analysis. The results are summarized in FIGS. 4 and 5 and tables 6 and 7.
Run B: Same as Run A, except the dose was 150 mg orally of each of atazanavir and compounds 114 and 120, and the vehicle was 10 percent ethanol, 40 percent polypropylglycol in 2.5 percent citric acid.

[3] = Chimp pharmacokinetics Run A, IV or PO co-dosing of atazanavir and Compounds 114, 120, 122; type: in vivo, chimpanzee; settings: for concentration at 24 h: concentration detected intact in urine
Procedure: Chimp Pharmacokineties. Run A: A 4 mg/mL solution of atazanavir and each of Compounds 114, 120 and 122 were prepared in 10% DMI (dimethyl isosorbide), 15% EtOH, 35% PG in D5W. Specifically, for each compound, 240 mgs of compound was dissolved in a solution composed of 6 mL of DMI, 9 mL of EtOH and 21 mL PG. Once the compound was fully dissolved, 24 mL of D5W was added and the solution mixed.
Fifty-five mL of each drug solution is then combined and the mixture was sterile filtered using a 0.2 μm filter. This produced 220 mL of a 1:1:1:1 mixture atazanavir:Compound 114:Compound 120:Compound 122. The final concentration of each drug in the solution was 1 mg/mL. Each animal received 50 mL of this solution through either IV or PO routes.
as §1, §2

[4] = Microsomal assay: stability in human liver microsomes; type: in vitro ADME; settings: human, liver microsomes, pH 7.4, human liver microsomes, repeated assay (Table 3); read-out: t1/2 (min) Avg ± SD (n = 3)
Procedure: Microsomal Assay. Human liver microsomes (20 mg/mL, pool of 50 individuals) were obtained from Xenotech LLC (Lenexa, Kans.). The incubation mixtures are prepared as follows. Stock solutions (10 mM) solutions of test Compounds 103, 106, 122 and of atazanavir were prepared in DMSO. The 10 mM stock solutions were diluted to 1 mM in acetonitrile (ACN). […] The microsome-test compound mixtures were added to wells of a 2 mL 96-well deep well polypropylene plate in triplicate. The plate was warmed to 37° C. before initiating the reactions by addition of prewarmed NADPH in 0.1 M potassium phosphate buffer, pH 7.4, containing 3 mM MgCl2. The final reaction mixture composition contained: • Liver Microsomes 0.5 mg/mL • NADPH 2 mM • Potassium Phosphate, pH 7.4 100 mM • Magnesium Chloride 3 mM • Test Compound 1.0 μM. The reaction mixtures were incubated at 37° C. and 50 μL aliquots were removed at 0, 3, 7, 12, 20, and 30 minutes and added to shallow-well 96-well plates which contained 50 μL of ice-cold ACN with internal standard to stop the reactions. The plates were stored at −20° C. for 30 minutes, after which 100 μL of water was added to the wells of the plate before centrifugation to pellet precipitated proteins. Supernatants were transferred to another 96-well plate and analyzed for amounts of parent remaining by LC-MS/MS using an Applied Biosystems API 4000 mass spectrometer. […] Data analysis was performed using Microsoft Excel Software. […] The results are shown in FIGS. 2 and 3 and in Table 3, below: […]

[5] = chimp A242E, PO, 24 hours, Run A
[6] = chimp A336C, IV, 24 hours, Run A

Row | SMILES | fold less potent in the presence of HSA than in cell culture medium alone ([1]; 10 mg/mL HSA versus cell culture medium) | EC50 ([1]; +0.5 mg/mL AAGP) [nM] | EC50 ([1]; +10 mg/mL HAS) [nM] | EC50 ([1]; +AAGP + HSA) [nM] | EC50 ([1]; No Serum Protein Added (cell culture medium)) [nM] | concentration detected intact in urine [2] [ng/mL] | concentration at 24 h [2] [ng/mL] | Ratio of urine concentration, compound:Atazanavir [3, 5] | Ratio of urine concentration, compound:Atazanavir [3, 6] | Ratio of urine concentration, compound:Atazanavir ([3]; chimpanzee, in vivo, iv, 24 h) | concentration detected intact in urine ([3]; chimpanzee, in vivo, iv, 24 h) [ng/mL] | concentration at 24 h ([3]; chimpanzee, in vivo, iv) [ng/mL] | Ratio of urine concentration, compound:Atazanavir ([3]; chimpanzee, in vivo, po, 24 h) | concentration detected intact in urine ([3]; chimpanzee, in vivo, po, 24 h) [ng/mL] | concentration at 24 h ([3]; chimpanzee, in vivo, po) [ng/mL] | half-life at 1 μM [4] [min]
1 | [2H]C([2H])([2H])OC(=O)N[C@H](C(=O)NN(Cc1ccc(-c2ccccn2)cc1)C[C@H](O)[C@H](Cc1ccccc1)NC(=O)[C@@H](NC(=O)OC([2H])([2H])[2H])C(C([2H])([2H])[2H])(C([2H])([2H])[2H])C([2H])([2H])[2H])C(C)(C)C [Compound 120, 1,14-Di(methyl-d3)(3S,8S,9S,125)-3-(1,1-dimethylethyl)-12-[(1,1-dimethylethyl)-d9]-8-hydroxy-4,11-dioxo-9-(phenlymethyl)-6-[[4-(2-pyridinyl)phenyl]methyl]-2,5,6,10,13-pentaazatetradecanedioate] | two- to greater than three-fold less potent | 3 | 1 | 4 | 0.5 | 5030 | 2930 | 2.16 | 1.74 | 1.52 | 3110 | 3030 | 2.15 | 1110 | 1230 | 26.9 ± 1.4
2 | [2H]C([2H])([2H])OC(=O)N[C@H](C(=O)N[C@@H](Cc1ccccc1)[C@@H](O)CN(Cc1ccc(-c2ccccn2)cc1)NC(=O)[C@@H](NC(=O)OC)C(C)(C)C)C(C([2H])([2H])[2H])(C([2H])([2H])[2H])C([2H])([2H])[2H] [Compound 114, 1-Methyl-14-(methyl-d3)(3S,8S,9S,12S)-3-(1,1-dimethylethyl)-12-[(1,1-dimethylethyl)-d9]-8-hydroxy-4,11-dioxo-9-(phenylmethyl)-6-[[4-(2-pyridinyl)phenyl]methyl]-2,5,6,10,13-pentaazatetradecanedioate] | – | – | – | – | – | 4580 | 2530 | 1.8 | 1.5 | 1.3 | 2820 | 2750 | 1.8 | 963 | 1070 | 31.5 ± 0.8
